Experimental data taken from patent publication US11878972B2, “Treatment of neurological disorders” (TORQUR AG, priority 2016, dated 2024).
Blank lines part the entries; values can stand above or below the molecule they belong to.

Experiments:
[1] = molecular target: T1, N-terminally GST-tagged mTOR (truncated version: amino acids 1360-2549) (Homo sapiens, UniProt P42345); test: In vitro mTOR binding assay (LanthaScreen TR-FRET); conditions: 3 nM GST-mTOR, 10 nM Tracer 314, 30 min at RT
T1 construct: truncated version: amino acids 1360-2549; purchased Life Technologies PR8683B
T1 sequence (P42345 1360-2549): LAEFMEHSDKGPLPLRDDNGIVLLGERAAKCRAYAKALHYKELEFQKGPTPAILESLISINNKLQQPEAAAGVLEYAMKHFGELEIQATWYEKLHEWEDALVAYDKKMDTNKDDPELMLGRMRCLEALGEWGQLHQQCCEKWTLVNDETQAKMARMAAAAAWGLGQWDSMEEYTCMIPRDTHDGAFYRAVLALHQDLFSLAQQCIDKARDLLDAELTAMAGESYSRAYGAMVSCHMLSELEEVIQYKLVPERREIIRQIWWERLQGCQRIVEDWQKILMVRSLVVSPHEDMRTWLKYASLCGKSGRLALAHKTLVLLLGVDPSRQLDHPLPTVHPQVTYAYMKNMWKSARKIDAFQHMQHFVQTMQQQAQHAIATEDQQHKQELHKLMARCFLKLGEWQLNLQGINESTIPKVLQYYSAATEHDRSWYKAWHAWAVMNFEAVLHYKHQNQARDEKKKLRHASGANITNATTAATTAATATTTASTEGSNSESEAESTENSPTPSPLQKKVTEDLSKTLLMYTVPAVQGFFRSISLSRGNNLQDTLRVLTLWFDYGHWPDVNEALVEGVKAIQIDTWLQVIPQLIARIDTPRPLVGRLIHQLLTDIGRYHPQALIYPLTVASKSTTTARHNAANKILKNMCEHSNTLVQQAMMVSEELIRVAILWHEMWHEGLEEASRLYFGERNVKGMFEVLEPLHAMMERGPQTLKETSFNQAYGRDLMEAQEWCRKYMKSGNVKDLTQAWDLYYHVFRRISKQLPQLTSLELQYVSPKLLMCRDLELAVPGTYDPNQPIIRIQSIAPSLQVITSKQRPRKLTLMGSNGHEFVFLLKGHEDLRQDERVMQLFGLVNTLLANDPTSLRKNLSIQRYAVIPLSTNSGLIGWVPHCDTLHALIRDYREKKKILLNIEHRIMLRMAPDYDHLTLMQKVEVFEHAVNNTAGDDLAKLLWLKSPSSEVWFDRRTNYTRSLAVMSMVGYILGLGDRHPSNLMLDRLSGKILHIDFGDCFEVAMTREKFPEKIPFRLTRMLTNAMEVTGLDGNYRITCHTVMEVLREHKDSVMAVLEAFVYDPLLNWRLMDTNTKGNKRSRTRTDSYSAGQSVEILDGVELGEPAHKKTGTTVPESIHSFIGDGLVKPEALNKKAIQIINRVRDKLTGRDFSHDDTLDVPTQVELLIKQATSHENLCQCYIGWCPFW

[2] = tested on: pPKB S473 in A2058 cells; test: In-cell Western blot, pPKB S473; type: cell-based; conditions: Homo sapiens, treated for 1 hour, normalized to α-tubulin
[3] = tested on: pS6 S235/S236 in A2058 cells; test: In-cell Western blot, pS6 S235/S236; type: cell-based; conditions: Homo sapiens, treated for 1 hour, normalized to α-tubulin
[4] = tested on: S6 phosphorylation (S235/236); test: mTOR signaling in brain samples of pilocarpine pre-treated and naïve mice (western blot); type: in vivo, mouse; conditions: for decrease of S6 phosphorylation (S235/236) versus control: brain, 3 hours after single oral dose: Cpd. 3 40 mg/kg, Cpd. 8 25 mg/kg, everolimus 5 mg/kg
Protocol: A ramping-up dosing protocol was used which has the advantage that pilocarpine can be individually applied according to the susceptibility of each mouse. Pilocarpine (Sigma-Aldrich, Germany) was administered to female NMRI mice intraperitoneally at a dose of 100 mg/kg (Pilo-SE group). […] To reduce peripheral side effects of pilocarpine, methylscopolamine (Sigma-Aldrich, Germany) was administered 30 minutes prior to the first injection of pilocarpine. Animals were continuously monitored and duration of convulsive SE was registered [referred to Racine's scale. SE onset was defined as continuous ongoing seizure activity following occurrence of one or two generalized tonic-clonic seizures [stage 4 or 5 on the Racine scale]. SE was characterized by head nodding in an upright (sitting) body position, Straub tail, and slight to moderate convulsions of forelimbs, sometimes interrupted by further generalized tonic-clonic seizures. In order to reduce mortality, SE was terminated by diazepam (10 mg/kg i.p.; diazepam-ratiopharm 10, injection solution) 90 min after SE onset. […] In the sham-SE group mice were treated with the same treatment scheme as the pilo-SE group but pilocarpine was replaced by 0.9% sodium chloride solution. The mortality in the pilo-SE model in mice is relatively high (overall about 50%) and can vary markedly between experimental groups/days. Therefore we had to start with a large number of mice for SE induction in order to reliably obtain a group size of 20-22 animals for the MEST.
Brain samples from pilocarpine treated mice and untreated mice were snap frozen and tissue was lysed in buffer containing 25 mM Tris-HCl, pH 8, 50 mM NaCl, 0.5% (w/v) sodium deoxycholate (DOC), and 0.5% (w/v) Triton X-100 and supplemented with complete protease inhibitor (Roche, Mannheim, Germany) and Phosphostop (NEB, USA). Disruption of cell lysates was performed by drawing up the cell suspension twenty times into a syringe with a small gauge needle (21 G) on ice. Protein concentrations in the lysates were determined by using the Pierce BCA Protein Assay kit (Thermo Scientific, Bonn, Germany) according to the manufacturer's instructions. […] Membranes were incubated with primary antibodies anti S6 1:1000, anti S6 Phospho Serin (240/244) 1:1000, anti S6 Phospho Serin (235/236) 1:2000 (NEB) and anti-Actin 1:100 (Sigma-Aldrich) for 1 h in 2% milk in PBST at room temperature (RT) and washed three times for 10 min in PBS-T. Secondary antibodies anti-rabbit-HRP 1:1000 (Dako, Hamburg, Germany) were incubated for 1 h in 2% milk in PBST at RT and washed three times for 10 min in PBST. Proteins were detected by enhanced chemiluminescence using SuperSignal West Femto Chemiluminescent Substrate (Thermo Scientific) and the ChemiDoc system (Bio-Rad, Munich, Germany) with QuantityOne software (Bio-Rad) according to the manufacturer's protocol. Relative protein expressions were quantified densitometrically with QuantityOne (Bio-Rad) software and calculated by normalization to the reference signals of actin with GraphPad Prism software (GraphPad, San Diego, CA, USA).
Pilocarpine pre-treated and naïve mice were treated with a single oral dose of Cpd. 3 (40 mg/kg), Cpd. 8 (25 mg/kg), everolimus (5 mg/kg) or vehicle. 5 mice per group were utilized and sacrificed after 3 hours.

[5] = tested on: female NMRI mice, nonepileptic (sham-SE) and epileptic (pilo-SE); test: Maximal electroshock seizure threshold test (MEST); type: in vivo, mouse; conditions: pretreatment 3 h
Protocol: A total of 166 adult female NMRI mice were used obtained from Charles River (Sulzfeld, Germany) at a weight range of 21-25 g (mice). Animals were kept under the following conditions: Housing: Animals were housed in groups of max. 8 mice under controlled conditions (temperature: 22±1° C.; humidity: 50% 60%/), under a 12-h light-dark cycle (lights on at 6:00 a.m.). Feeding: Standard laboratory chow (Altromin 1324 standard diet, Altromin Spezialfutter GmbH, Lage, Germany) was provided ad libitum. Drinking water: Tap water was provided ad libitum.
The MEST determines a population seizure threshold in groups of ˜20 animals and not the threshold for an individual animal. In the present study, the MEST was determined by a staircase procedure as previously described. A stimulator (BMT Medizintechnik, Berlin, Germany) that delivered a constant current (adjustable from 1-200 mA regardless of the impedance of the animal) with sinusoidal pulses (50/sec) for 0.2 sec was used.
Current administration was performed via bilateral transcorneal stimulation (using copper electrodes). Before transcorneal stimulation, a drop of tetracaine solution (2%) was administered to the eyes of the mouse for local anesthesia. Two minutes later, the mouse was restrained by hand to press the copper electrodes on both corneas while the stimulus was applied by stepping on a foot pedal switch connected with the stimulator. Electrodes were covered with soft leather and soaked with saline before each current application. […] The first stimulation was started with a current near to the control threshold.
3 (HCl): 40/100 mg in 10 ml (Suspension; 5% PEG 400 and 2% Tween 80, HPBCD (10%6)) • Cpd. 8 (HCl): 12.5/25 mg in 10 ml (5% PEG 400 and 2% Tween 80, HPBCD (10%))
Statistical analysis were calculated using Student's t-test. All tests were used two-sided; a P<0.05 was considered significant.
We performed no special tests for the determination of adverse effects. Mice were observed about 30 min after injection in their home cages for obvious sedation or reduction of wellbeing. Five minutes before electrical stimulation mice were again observed in their home cages and two minutes before stimulation during handling procedure for treatment with local anaesthesia. Every obvious variation from normal behavior was noted. Only phenobarbital induced noticeable sedation which lasted for more than 60 min. All other test drugs (including vehicle solutions) were tolerated without any obvious adverse effects.

IC50 [1]: 796 nM
Compound: Nc1cc(C(F)(F)F)c(-c2nc(N3CCNCC3)nc(N3CCOCC3)n2)cn1

IC50 [1]: 2830 nM
Compound: Nc1ncc(-c2nc(N3CCNCC3)nc(N3CCOCC3)n2)c(C(F)(F)F)n1

IC50 [1]: 118 nM
Compound: Nc1cc(C(F)(F)F)c(-c2nc(N3CCOCC3)nc(N3CCSCC3)n2)cn1

IC50 [1]: 394 nM
Compound: Nc1ncc(-c2nc(N3CCOCC3)nc(N3CCSCC3)n2)c(C(F)(F)F)n1

Compound: C[C@@H]1COCCN1c1nc(-c2cnc(N)cc2C(F)F)nc(N2CCOCC23CCC3)n1 [Compound 88, 4-(difluoromethyl)-5-[4-[(3R)-3-methylmorpholin-4-yl]-6-(8-oxa-5-azaspiro[3.5]nonan-5-yl)-1,3,5-triazin-2-yl]pyridin-2-amine]
IC50 ([2]; A2058, 1 h): 271 nM
IC50 ([3]; A2058, 1 h): 192 nM

Compound: CO[C@H]1C[C@@H]2CC[C@@H](C)[C@@](O)(O2)C(=O)C(=O)N2CCCC[C@H]2C(=O)O[C@H]([C@H](C)C[C@@H]2CC[C@@H](OCCO)[C@H](OC)C2)CC(=O)[C@H](C)/C=C(\C)[C@@H](O)[C@@H](OC)C(=O)[C@H](C)C[C@H](C)/C=C/C=C/C=C/1C [everolimus, reference compound]
decrease of S6 phosphorylation (S235/236) versus control ([4]; epileptic (pilocarpine pre-treated) mice): No significant changes
S6 phosphorylation / mTOR signaling in brain (FIG. 3B) ([4]; epileptic/pilocarpine pre-treated and naïve mice, single oral dose): did not show significant mTOR signaling inhibition in brain
decrease of S6 phosphorylation (S235/236) versus control ([4]; naïve mice): No significant changes
Threshold difference between nonepileptic and epileptic ([5]; 5 mg/kg everolimus p.o.): 20%
Threshold difference between vehicle and drug threshold, epileptic ([5]; 5 mg/kg everolimus p.o.): 16%
Threshold difference between vehicle and drug threshold, nonepileptic ([5]; 5 mg/kg everolimus p.o.): 13%
Threshold difference between nonepileptic and epileptic ([5]; 10 mg/kg everolimus p.o.): 1%
Threshold difference between vehicle and drug threshold, nonepileptic ([5]; 10 mg/kg everolimus p.o.): 10%

Compound: C[C@H]1COCCN1c1nc(-c2cnc(N)cc2C(F)(F)F)nc(N2CCOCC2)n1 [reference compound]
IC50 [2]: 196 nM
IC50 [3]: 90 nM

Compound: C[C@H]1COCCN1c1nc(-c2cnc(N)nc2C(F)(F)F)nc(N2CCOCC2)n1 [reference compound]
IC50 [2]: 91 nM
IC50 [3]: 164 nM

Compound: Nc1cc(C(F)(F)F)c(-c2nc(N3CCOCC3)cc(N3CCOCC3)n2)cn1 [reference compound]
IC50 [2]: 555 nM
IC50 ([3]; A2058, 1 h): 665 nM
